20 compounds from US20230132823A1, “BI-FUNCTIONAL COMPOUNDS AND METHODS FOR TARGETED UBIQUITINATION OF ANDROGEN RECEPTOR” (MONTELINO THERAPEUTICS, INC., priority 2020, published 2023) can be followed below.

The assay deals with 22Rv1. Description: 22Rv1 cell proliferation assay (Experimental Example 1, cell count). In kind it is cell-based. The conditions noted are these: Homo sapiens, 22Rv1, read-out: 22Rv1 cell count decrease at 10 μM for 48 hours; 10 μM (method: four days); read-out: 22Rv1 cell count decrease at 10 μM. The procedure: The human prostate cancer cell line, 22Rv1 has been reported to express a high level of AR-V7. […] Standard culture media was RPMI-1640 supplemented with 10% fetal bovine serum. The test compound initially was dissolved in DMSO at 50 mM. This stock solution was then diluted as needed for the indicated concentrations. […]
In the Table: (+)—the cell count decreased between 0 and 20%; (++)—the cell count decreased […]; (+++)—the cell count decreased by more than 50%.

On to `O=C(COc1c(-c2csc(N3CCOCC3)n2)ccc(F)c1F)NCCCCCCCCNc1cccc2c1C(=O)N(C1CCC(=O)NC1=O)C2=O` (centres unmarked) [Example 2, 2-(2,3-difluoro-6-(2-morpholinothiazol-4-yl)phenoxy)-N-(8-((2-(2,6-dioxopiperidin-3-yl)-1,3-dioxoisoindolin-4-yl)amino)octyl)acetamide], for which the inhibition at 10 µM lay within 0 to 20%.
The result for `O=C(COc1c(-c2csc(N3CCOCC3)n2)ccc(F)c1F)NCCOCCOCCNc1cccc2c1C(=O)N(C1CCC(=O)NC1=O)C2=O` (centres unmarked) [Example 4, 2-(2,3-difluoro-6-(2-morpholinothiazol-4-yl)phenoxy)-N-(2-(2-(2-((2-(2,6-dioxopiperidin-3-yl)-1,3-dioxoisoindolin-4-yl)amino)ethoxy)ethoxy)ethyl)acetamide] reads 0 to 20%; that for `O=C(COc1c(-c2csc(N3CCOCC3)n2)ccc(F)c1F)NCCOCCOCCOCCNc1cccc2c1C(=O)N(C1CCC(=O)NC1=O)C2=O` (centres unmarked) [Example 5, 2-(2,3-difluoro-6-(2-morpholinothiazol-4-yl)phenoxy)-N-(2-(2-(2-(2-((2-(2,6-dioxopiperidin-3-yl)-1,3-dioxoisoindolin-4-yl)amino)ethoxy)ethoxy)ethoxy)ethyl)acetamide], 0 to 20%; that for `O=C(COc1c(-c2csc(N3CCOCC3)n2)ccc(F)c1F)NCCOCCOCCOCCOCCNc1cccc2c1C(=O)N(C1CCC(=O)NC1=O)C2=O` (centres unmarked) [Example 6, 2-(2,3-difluoro-6-(2-morpholinothiazol-4-yl)phenoxy)-N-(14-((2-(2,6-dioxopiperidin-3-yl)-1,3-dioxoisoindolin-4-yl)amino)-3,6,9,12-tetraoxatetradecyl)acetamide], 0 to 20%.
As to `O=C(COc1cccc2c1C(=O)N(C1CCC(=O)NC1=O)C2=O)NCCCCCCNC(=O)COc1c(-c2csc(N3CCOCC3)n2)ccc(F)c1F` (centres unmarked) [Example 7, 2-(2,3-difluoro-6-(2-morpholinothiazol-4-yl)phenoxy)-N-(6-(2-((2-(2,6-dioxopiperidin-3-yl)-1,3-dioxoisoindolin-4-yl)oxy)acetamido)hexyl)acetamide], the inhibition at 10 µM lay in the range of 0 to 20%.
The result for `O=C(COc1cccc2c1C(=O)N(C1CCC(=O)NC1=O)C2=O)NCCCCCCCCNC(=O)COc1c(-c2csc(N3CCOCC3)n2)ccc(F)c1F` (centres unmarked) [Example 8, 2-(2,3-difluoro-6-(2-morpholinothiazol-4-yl)phenoxy)-N-(8-(2-((2-(2,6-dioxopiperidin-3-yl)-1,3-dioxoisoindolin-4-yl)oxy)acetamido)octyl)acetamide] reads 0 to 20%; that for `O=C(COc1cccc2c1C(=O)N(C1CCC(=O)NC1=O)C2=O)NCCCCCCCCCCNC(=O)COc1c(-c2csc(N3CCOCC3)n2)ccc(F)c1F` (centres unmarked) [Example 9, 2-(2,3-difluoro-6-(2-morpholinothiazol-4-yl)phenoxy)-N-(10-(2-((2-(2,6-dioxopiperidin-3-yl)-1,3-dioxoisoindolin-4-yl)oxy)acetamido)decyl)acetamide], 0 to 20%.
With `O=C(COc1cccc2c1C(=O)N(C1CCC(=O)NC1=O)C2=O)NCCOCCOCCNC(=O)COc1c(-c2csc(N3CCOCC3)n2)ccc(F)c1F` (centres unmarked) [Example 10, 2-(2,3-difluoro-6-(2-morpholinothiazol-4-yl)phenoxy)-N-(2-(2-(2-(2-((2-(2,6-dioxopiperidin-3-yl)-1,3-dioxoisoindolin-4-yl)oxy)acetamido)ethoxy)ethoxy)ethyl)acetamide], the inhibition at 10 µM is 0 to 20%.
On to `O=C(COc1cccc2c1C(=O)N(C1CCC(=O)NC1=O)C2=O)NCCOCCOCCOCCNC(=O)COc1c(-c2csc(N3CCOCC3)n2)ccc(F)c1F` (centres unmarked) [Example 11, 2-(2,3-difluoro-6-(2-morpholinothiazol-4-yl)phenoxy)-N-(1-((2-(2,6-dioxopiperidin-3-yl)-1,3-dioxoisoindolin-4-yl)oxy)-2-oxo-6,9,12-trioxa-3-azatetradecan-14-yl)acetamide], for which the inhibition at 10 µM was 0 to 20%.
The result for `O=C1CCC(N2C(=O)c3cccc(NCCOCCOCCOc4c(-c5csc(N6CCOCC6)n5)ccc(F)c4F)c3C2=O)C(=O)N1` (centres unmarked) [Example 12, 4-((2-(2-(2-(2,3-difluoro-6-(2-morpholinothiazol-4-yl)phenoxy)ethoxy)ethoxy)ethyl)amino)-2-(2,6-dioxopiperidin-3-yl)isoindoline-1,3-dione] reads 0 to 20%.
The result for `O=C1CCC(N2C(=O)c3cccc(NCCOCCOCCOCCOc4c(-c5csc(N6CCOCC6)n5)ccc(F)c4F)c3C2=O)C(=O)N1` (centres unmarked) [Example 13, 4-((2-(2-(2-(2-(2,3-difluoro-6-(2-morpholinothiazol-4-yl)phenoxy)ethoxy)ethoxy)ethoxy)ethyl)amino)-2-(2,6-dioxopiperidin-3-yl)isoindoline-1,3-dione] reads 0 to 20%.
Take `O=C(COc1cccc2c1C(=O)N(C1CCC(=O)NC1=O)C2=O)NCCOCCOCCOCCOCCOc1c(-c2csc(N3CCOCC3)n2)ccc(F)c1F` (centres unmarked) [Example 14, N-(14-(2,3-difluoro-6-(2-morpholinothiazol-4-yl)phenoxy)-3,6,9,12-tetraoxatetradecyl)-2-((2-(2,6-dioxopiperidin-3-yl)-1,3-dioxoisoindolin-4-yl)oxy)acetamide]: the inhibition at 10 µM was in the range of 0 to 20%.
The result for `Cc1ncsc1-c1ccc([C@H](C)NC(=O)[C@@H]2C[C@@H](O)CN2C(=O)[C@@H](NC(=O)CCCNC(=O)COc2c(-c3csc(N4CCOCC4)n3)ccc(F)c2F)C(C)(C)C)cc1` [Example 15, (2S,4R)-1-((S)-2-(4-(2-(2,3-difluoro-6-(2-morpholinothiazol-4-yl)phenoxy)acetamido)butanamido)-3,3-dimethylbutanoyl)-4-hydroxy-N-((S)-1-(4-(4-methylthiazol-5-yl)phenyl)ethyl)pyrrolidine-2-carboxamide] reads under 50%; that for `Cc1ncsc1-c1ccc([C@H](C)NC(=O)[C@@H]2C[C@@H](O)CN2C(=O)[C@@H](NC(=O)CCCCCNC(=O)COc2c(-c3csc(N4CCOCC4)n3)ccc(F)c2F)C(C)(C)C)cc1` [Example 17, (2S,4R)-1-((S)-2-(6-(2-(2,3-difluoro-6-(2-morpholinothiazol-4-yl)phenoxy)acetamido)hexanamido)-3,3-dimethylbutanoyl)-4-hydroxy-N-((S)-1-(4-(4-methylthiazol-5-yl)phenyl)ethyl)pyrrolidine-2-carboxamide], under 50%; that for `Cc1ncsc1-c1ccc([C@H](C)NC(=O)[C@@H]2C[C@@H](O)CN2C(=O)[C@@H](NC(=O)CCCCCCNC(=O)COc2c(-c3csc(N4CCOCC4)n3)ccc(F)c2F)C(C)(C)C)cc1` [Example 18, (2S,4R)-1-((S)-2-(7-(2-(2,3-difluoro-6-(2-morpholinothiazol-4-yl)phenoxy)acetamido)heptanamido)-3,3-dimethylbutanoyl)-4-hydroxy-N-((S)-1-(4-(4-methylthiazol-5-yl)phenyl)ethyl)pyrrolidine-2-carboxamide], under 50%.
The result for `Cc1ncsc1-c1ccc([C@H](C)NC(=O)[C@@H]2C[C@@H](O)CN2C(=O)[C@@H](NC(=O)COCCCNC(=O)COc2c(-c3csc(N4CCOCC4)n3)ccc(F)c2F)C(C)(C)C)cc1` [Example 19, (2S,4R)-1-((S)-2-(2-(3-(2-(2,3-difluoro-6-(2-morpholinothiazol-4-yl)phenoxy)acetamido)propoxy)acetamido)-3,3-dimethylbutanoyl)-4-hydroxy-N-((S)-1-(4-(4-methylthiazol-5-yl)phenyl)ethyl)pyrrolidine-2-carboxamide] reads under 50%; that for `Cc1ncsc1-c1ccc([C@H](C)NC(=O)[C@@H]2C[C@@H](O)CN2C(=O)[C@@H](NC(=O)COCCOCCNC(=O)COc2c(-c3csc(N4CCOCC4)n3)ccc(F)c2F)C(C)(C)C)cc1` [Example 20, (2S,4R)-1-((S)-2-(tert-butyl)-14-(2,3-difluoro-6-(2-morpholinothiazol-4-yl)phenoxy)-4,13-dioxo-6,9-dioxa-3,12-diazatetradecanoyl)-4-hydroxy-N-((S)-1-(4-(4-methylthiazol-5-yl)phenyl)ethyl)pyrrolidine-2-carboxamide], under 50%.
The result for `Cc1ncsc1-c1ccc([C@H](C)NC(=O)[C@@H]2C[C@@H](O)CN2C(=O)[C@@H](NC(=O)CCCCCCCOc2c(-c3csc(N4CCOCC4)n3)ccc(F)c2F)C(C)(C)C)cc1` [Example 21, (2S,4R)-1-((S)-2-(8-(2,3-difluoro-6-(2-morpholinothiazol-4-yl)phenoxy)octanamido)-3,3-dimethylbutanoyl)-4-hydroxy-N-((S)-1-(4-(4-methylthiazol-5-yl)phenyl)ethyl)pyrrolidine-2-carboxamide] reads under 50%.
As for `Cc1ncsc1-c1ccc([C@H](CC(=O)NCCCCNC(=O)COc2c(-c3csc(N4CCOCC4)n3)ccc(F)c2F)NC(=O)[C@@H]2C[C@@H](O)CN2C(=O)[C@@H](NC(=O)C2(F)CC2)C(C)(C)C)cc1` [Example 22, (2S,4R)-N-((S)-3-((4-(2-(2,3-difluoro-6-(2-morpholinothiazol-4-yl)phenoxy)acetamido)butyl)amino)-1-(4-(4-methylthiazol-5-yl)phenyl)-3-oxopropyl)-1-((S)-2-(1-fluorocyclopropane-1-carboxamido)-3,3-dimethylbutanoyl)-4-hydroxypyrrolidine-2-carboxamide], the inhibition at 10 µM was 0 to 20%.
The result for `Cc1ncsc1-c1ccc([C@H](CC(=O)NCCCCCCNC(=O)COc2c(-c3csc(N4CCOCC4)n3)ccc(F)c2F)NC(=O)[C@@H]2C[C@@H](O)CN2C(=O)[C@@H](NC(=O)C2(F)CC2)C(C)(C)C)cc1` [Example 23, (2S,4R)-N-((S)-3-((6-(2-(2,3-difluoro-6-(2-morpholinothiazol-4-yl)phenoxy)acetamido)hexyl)amino)-1-(4-(4-methylthiazol-5-yl)phenyl)-3-oxopropyl)-1-((S)-2-(1-fluorocyclopropane-1-carboxamido)-3,3-dimethylbutanoyl)-4-hydroxypyrrolidine-2-carboxamide] reads 0 to 20%.
